From patent US20150320692A1 (UNIWERSYTET LÓDZKI, priority 2012, published 2015) come the findings set out here.

In this assay the test system is CLL cells (leukemic lymphocytes). The assay can be described thus: Assessment of mitochondrial membrane potential (CMXRos, flow cytometry). The class given is cell-based, human. Conditions: for mean percentage of cells with lower mitochondrial potential (ΔΨm^low/Gly-A^−): 1.6 μM. An excerpt:
Mitochondrial membrane potential is an early indicator of apoptosis. CMXRos, i.e. Chloromethyl-X-rosamine (the reagent's name by Mito Tracker Red CMXRos, Molecular Probes, USA), and a monoclonal antibody to glycophorin A conjugated with FITC (the reagent's name of Anti-Glycophorin A FITC by Dako, Denmark) were used for its assessment. CMXRos is a lipophilic cationic dye that accumulates in the mitochondrial matrix of viable cells when there is an electronegative load on the inner surface of the mitochondrial membrane. This asymmetric location of protons along the inner mitochondrial membrane leads to a high mitochondrial membrane potential (ΔΨm) in living cells. A decreased mitochondrial potential ΔΨm is one of the first symptoms of apoptosis during the process of induction, which results in lowering of the mitochondrial uptake of CMXRos.
The stock CMXRos solution was prepared by dilution of the substance supplied by the manufacturer in 94 μl DMSO (dimethylsulphoxide), and stored at […]. Then working solution was prepared also using DMSO (1:10) and stored at 4° C. Mononuclear cells, i.e. leukemic lymphocytes, at 1×10^6 MNCs/ml concentration, were incubated with CMXRos (2.5 μl working solution in 500 μl RPMI 1640 medium) at 37° C. for 30 minutes. […] The samples were next measured using flow cytometry. The percentage of cells not bound to anti-glycophorin A-FITC (ΔΨm^low/Gly-A^− cells), with low mitochondrial potential, was calculated.
All fluorescence measurements were performed by a flow cytometer FACSCalibur (Becton Dickinson, USA) equipped with an argon laser 488 nm and computer program CellQuestPro (Becton Dickinson, USA). Each time 10 000 cells were evaluated. The fluorescence was measured using standard emission filters: green—FL1 (wavelength λ=530±20 nm) and red—FL3 (>600 nm).

As for `Nc1nc(F)nc2c1ncn2[C@@H]1O[C@H](CO)[C@@H](O)[C@@H]1O` [FA, fludarabine], the “mean percentage of cells with lower mitochondrial potential (ΔΨm^low/Gly-A^−)” value by setting is: (24 h) 52.05%; (48 h) 74.49%.

Take rituximab: the “apoptosis-inducing action (mitochondrial potential) compared with control” value (10 μg/ml, 24-hour cultures) is “apoptosis-inducing action in order of spontaneous apoptosis”.
